In one test the target is T1, CDK8/cycC (Homo sapiens, UniProt P49336).
T1 construct: purchased
Briefly: Kinase selectivity IC50, CDK8/cycC. The format is biochemical. The note with it: unpublished.

Test [1] deals with T2, Fgr (Homo sapiens, UniProt P09769). Briefly: Kinase selectivity IC50, Fgr.
The next test deals with LCK (Homo sapiens, UniProt P06239). Briefly: Kinase selectivity IC50, LCK.
The target of the next test is BRK (Homo sapiens, UniProt Q13882). Briefly: Kinase selectivity IC50, BRK.
Another test deals with CSK (Homo sapiens, UniProt P41240). Briefly: Kinase selectivity IC50, CSK.
A further test deals with RET (Homo sapiens, UniProt P07949). Briefly: Kinase selectivity IC50, RET.
The next test concerns the target FLT3 (Homo sapiens, UniProt P36888). Briefly: Kinase selectivity IC50, FLT3.
The next test deals with MLK2 (Homo sapiens, UniProt Q02779). Briefly: Kinase selectivity IC50, MLK2.
For a further test, the target named is CK1e1 (Homo sapiens, UniProt P49674). Briefly: Kinase selectivity IC50, CK1e1.
The next test deals with MKNK2 (Homo sapiens, UniProt Q9HBH9). Briefly: Kinase selectivity IC50, MKNK2.
The target of a further test is FGFR1 (Homo sapiens, UniProt P11362). Briefly: Kinase selectivity IC50, FGFR1.
Another test has as its target RIPK2 (Homo sapiens, UniProt O43353). Briefly: Kinase selectivity IC50, RIPK2.
Test [2] addresses T3, Src (Homo sapiens, UniProt P12931). Details: purchased. Particulars: footnote a (Crawford et al.); cited from earlier work.
For test [3], the target named is T2, Fgr. Details: purchased. The note with it: footnote a (Crawford et al.); cited from earlier work.
The target of test [4] is T3, Src. Briefly: Kinase selectivity IC50, Src.
Test [5] concerns the target T4, BMX (Homo sapiens, UniProt P51813). Briefly: Kinase selectivity IC50, BMX.
For the next test, the target named is BLK (Homo sapiens, UniProt P51451). Briefly: Kinase selectivity IC50, BLK.
The target in a further test is TXK (Homo sapiens, UniProt P42681). Briefly: Kinase selectivity IC50, TXK.
For a further test, the target named is YES (Homo sapiens, UniProt P07947). Briefly: Kinase selectivity IC50, YES.
In the next test the target is HCK (Homo sapiens, UniProt P08631). Briefly: Kinase selectivity IC50, HCK.
In the next test the target is SRM (Homo sapiens, UniProt Q9H3Y6). Briefly: Kinase selectivity IC50, SRM.
The next test has as its target LYN (Homo sapiens, UniProt P07948). Briefly: Kinase selectivity IC50, LYN.
A further test addresses FRK (Homo sapiens, UniProt P42685). Briefly: Kinase selectivity IC50, FRK.
In a further test the target is TNK2 (Homo sapiens, UniProt Q07912). Briefly: Kinase selectivity IC50, TNK2.
Another test concerns the target ERBB2 (Homo sapiens, UniProt P04626). Briefly: Kinase selectivity IC50, ERBB2.
Test [6] concerns the target T4, BMX. Briefly: Covalent reaction (kinact/Ki), real-time competition with a fluorescent active site ligand, BMX.

Like-named read-outs stand apart in the source and are kept apart here.

T2 sequence (P09769 whole entry): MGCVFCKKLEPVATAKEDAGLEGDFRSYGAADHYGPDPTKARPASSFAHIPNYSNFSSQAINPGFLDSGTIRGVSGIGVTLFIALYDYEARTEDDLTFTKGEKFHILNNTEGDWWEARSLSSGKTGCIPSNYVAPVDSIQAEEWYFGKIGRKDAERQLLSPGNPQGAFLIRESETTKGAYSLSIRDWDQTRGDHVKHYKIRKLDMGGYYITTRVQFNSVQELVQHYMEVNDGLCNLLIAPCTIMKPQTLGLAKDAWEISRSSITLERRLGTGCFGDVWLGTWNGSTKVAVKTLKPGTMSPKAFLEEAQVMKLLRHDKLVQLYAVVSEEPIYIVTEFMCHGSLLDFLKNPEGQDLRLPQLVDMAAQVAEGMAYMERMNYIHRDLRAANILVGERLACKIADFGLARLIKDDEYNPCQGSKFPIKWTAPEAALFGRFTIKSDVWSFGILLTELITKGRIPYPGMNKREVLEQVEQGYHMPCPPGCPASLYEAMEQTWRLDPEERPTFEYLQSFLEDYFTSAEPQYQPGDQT
Chain of BRK (Q13882 whole entry): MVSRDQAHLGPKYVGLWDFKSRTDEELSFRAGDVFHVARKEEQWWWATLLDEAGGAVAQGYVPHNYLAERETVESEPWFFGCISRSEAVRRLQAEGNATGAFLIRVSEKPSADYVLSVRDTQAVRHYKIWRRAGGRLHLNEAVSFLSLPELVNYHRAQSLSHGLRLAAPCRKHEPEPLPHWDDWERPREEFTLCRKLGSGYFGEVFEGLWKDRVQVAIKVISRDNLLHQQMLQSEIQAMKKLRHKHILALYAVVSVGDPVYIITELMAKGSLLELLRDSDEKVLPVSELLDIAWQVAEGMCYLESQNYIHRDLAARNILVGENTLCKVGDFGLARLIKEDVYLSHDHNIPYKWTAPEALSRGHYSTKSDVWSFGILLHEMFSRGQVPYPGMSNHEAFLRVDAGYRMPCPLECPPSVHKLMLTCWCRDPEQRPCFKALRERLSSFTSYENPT
Chain of RIPK2 (O43353 whole entry): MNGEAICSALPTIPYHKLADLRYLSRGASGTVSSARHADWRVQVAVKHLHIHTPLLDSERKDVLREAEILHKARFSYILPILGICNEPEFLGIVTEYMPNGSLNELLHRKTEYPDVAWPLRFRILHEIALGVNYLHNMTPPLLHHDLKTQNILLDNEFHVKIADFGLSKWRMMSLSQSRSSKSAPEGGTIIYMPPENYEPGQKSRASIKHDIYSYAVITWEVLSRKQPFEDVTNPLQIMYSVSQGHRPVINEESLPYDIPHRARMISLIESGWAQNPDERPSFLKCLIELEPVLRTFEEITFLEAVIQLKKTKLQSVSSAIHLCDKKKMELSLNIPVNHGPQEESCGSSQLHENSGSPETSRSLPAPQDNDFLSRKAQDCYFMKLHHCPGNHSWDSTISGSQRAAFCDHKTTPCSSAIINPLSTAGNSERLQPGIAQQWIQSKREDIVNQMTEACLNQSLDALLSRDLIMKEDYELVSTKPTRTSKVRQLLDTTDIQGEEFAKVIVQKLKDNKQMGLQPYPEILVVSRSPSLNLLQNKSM
Chain of CSK (P41240 whole entry): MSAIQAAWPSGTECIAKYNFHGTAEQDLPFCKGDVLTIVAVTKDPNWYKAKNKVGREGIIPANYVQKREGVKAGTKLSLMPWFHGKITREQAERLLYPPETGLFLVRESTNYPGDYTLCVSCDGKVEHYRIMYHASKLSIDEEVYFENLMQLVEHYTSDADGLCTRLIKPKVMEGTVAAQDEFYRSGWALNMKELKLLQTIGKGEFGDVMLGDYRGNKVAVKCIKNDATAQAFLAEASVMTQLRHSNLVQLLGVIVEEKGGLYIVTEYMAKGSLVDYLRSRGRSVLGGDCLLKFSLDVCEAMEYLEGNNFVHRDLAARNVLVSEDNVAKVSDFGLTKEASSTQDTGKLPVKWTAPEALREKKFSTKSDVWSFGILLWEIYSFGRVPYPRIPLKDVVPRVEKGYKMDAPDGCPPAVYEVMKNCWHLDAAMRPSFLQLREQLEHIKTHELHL
T3 sequence (P12931 whole entry): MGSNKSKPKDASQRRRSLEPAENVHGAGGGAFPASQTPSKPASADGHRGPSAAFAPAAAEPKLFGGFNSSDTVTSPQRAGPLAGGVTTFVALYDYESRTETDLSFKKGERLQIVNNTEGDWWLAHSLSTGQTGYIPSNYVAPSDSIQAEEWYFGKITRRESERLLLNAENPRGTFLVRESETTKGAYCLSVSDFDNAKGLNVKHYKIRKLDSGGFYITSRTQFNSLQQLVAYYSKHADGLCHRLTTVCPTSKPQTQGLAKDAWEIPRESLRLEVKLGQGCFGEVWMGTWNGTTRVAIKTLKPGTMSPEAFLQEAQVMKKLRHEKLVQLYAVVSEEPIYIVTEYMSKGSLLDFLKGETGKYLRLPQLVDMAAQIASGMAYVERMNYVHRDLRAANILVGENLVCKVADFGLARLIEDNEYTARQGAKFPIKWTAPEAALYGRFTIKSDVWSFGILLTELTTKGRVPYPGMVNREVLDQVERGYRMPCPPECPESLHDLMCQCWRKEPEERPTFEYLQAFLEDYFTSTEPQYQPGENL
T4 sequence (P51813 whole entry): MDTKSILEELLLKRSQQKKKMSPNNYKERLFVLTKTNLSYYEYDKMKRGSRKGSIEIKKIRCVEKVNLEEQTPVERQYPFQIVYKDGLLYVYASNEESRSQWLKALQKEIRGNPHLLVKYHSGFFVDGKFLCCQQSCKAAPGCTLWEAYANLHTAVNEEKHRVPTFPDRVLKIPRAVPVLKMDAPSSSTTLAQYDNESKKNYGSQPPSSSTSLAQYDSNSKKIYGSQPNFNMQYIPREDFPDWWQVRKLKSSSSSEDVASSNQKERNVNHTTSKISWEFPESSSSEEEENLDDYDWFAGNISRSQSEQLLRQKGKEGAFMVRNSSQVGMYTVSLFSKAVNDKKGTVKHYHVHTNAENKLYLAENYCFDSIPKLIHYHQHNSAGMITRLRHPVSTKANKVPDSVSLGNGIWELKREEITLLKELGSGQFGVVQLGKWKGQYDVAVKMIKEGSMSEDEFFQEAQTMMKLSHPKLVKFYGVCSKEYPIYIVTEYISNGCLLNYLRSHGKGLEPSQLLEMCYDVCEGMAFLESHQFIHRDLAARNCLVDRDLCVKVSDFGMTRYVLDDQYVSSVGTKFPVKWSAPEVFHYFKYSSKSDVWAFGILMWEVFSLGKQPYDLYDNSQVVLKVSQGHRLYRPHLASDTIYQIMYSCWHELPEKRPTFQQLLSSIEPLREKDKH
Chain of FGFR1 (P11362 22-822): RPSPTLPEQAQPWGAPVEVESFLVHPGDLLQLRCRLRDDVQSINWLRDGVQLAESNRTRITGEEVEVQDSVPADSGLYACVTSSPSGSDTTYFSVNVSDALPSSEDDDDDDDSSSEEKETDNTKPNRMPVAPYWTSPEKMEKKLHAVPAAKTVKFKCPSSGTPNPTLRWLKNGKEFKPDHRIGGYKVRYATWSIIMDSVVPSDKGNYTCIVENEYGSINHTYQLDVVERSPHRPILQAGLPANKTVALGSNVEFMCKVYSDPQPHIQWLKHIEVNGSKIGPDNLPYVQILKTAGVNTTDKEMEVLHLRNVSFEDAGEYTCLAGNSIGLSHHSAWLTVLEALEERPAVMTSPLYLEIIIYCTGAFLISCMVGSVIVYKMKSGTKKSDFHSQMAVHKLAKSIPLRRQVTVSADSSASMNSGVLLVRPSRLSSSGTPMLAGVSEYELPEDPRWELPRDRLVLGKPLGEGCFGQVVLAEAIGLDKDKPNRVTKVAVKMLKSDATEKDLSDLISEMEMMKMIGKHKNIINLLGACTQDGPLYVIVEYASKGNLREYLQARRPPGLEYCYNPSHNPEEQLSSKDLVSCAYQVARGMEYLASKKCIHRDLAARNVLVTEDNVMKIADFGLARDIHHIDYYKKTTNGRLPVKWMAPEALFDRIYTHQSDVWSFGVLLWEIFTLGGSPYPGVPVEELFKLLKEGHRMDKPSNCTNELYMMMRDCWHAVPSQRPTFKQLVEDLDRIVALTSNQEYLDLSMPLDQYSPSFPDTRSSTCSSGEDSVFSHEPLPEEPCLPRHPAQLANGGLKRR
Chain of MKNK2 (Q9HBH9 whole entry): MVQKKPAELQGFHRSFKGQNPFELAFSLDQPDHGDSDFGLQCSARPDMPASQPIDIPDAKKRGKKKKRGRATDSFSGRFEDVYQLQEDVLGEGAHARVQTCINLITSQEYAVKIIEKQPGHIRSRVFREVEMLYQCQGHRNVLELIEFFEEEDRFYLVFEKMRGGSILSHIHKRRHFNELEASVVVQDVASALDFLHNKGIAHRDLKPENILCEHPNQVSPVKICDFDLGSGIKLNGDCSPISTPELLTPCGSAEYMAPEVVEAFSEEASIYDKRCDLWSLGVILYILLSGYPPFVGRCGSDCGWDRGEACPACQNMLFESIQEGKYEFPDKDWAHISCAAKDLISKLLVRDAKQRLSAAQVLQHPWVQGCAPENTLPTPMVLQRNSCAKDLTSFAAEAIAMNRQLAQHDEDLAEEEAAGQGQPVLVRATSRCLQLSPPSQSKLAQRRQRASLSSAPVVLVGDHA
Chain of BLK (P51451 whole entry): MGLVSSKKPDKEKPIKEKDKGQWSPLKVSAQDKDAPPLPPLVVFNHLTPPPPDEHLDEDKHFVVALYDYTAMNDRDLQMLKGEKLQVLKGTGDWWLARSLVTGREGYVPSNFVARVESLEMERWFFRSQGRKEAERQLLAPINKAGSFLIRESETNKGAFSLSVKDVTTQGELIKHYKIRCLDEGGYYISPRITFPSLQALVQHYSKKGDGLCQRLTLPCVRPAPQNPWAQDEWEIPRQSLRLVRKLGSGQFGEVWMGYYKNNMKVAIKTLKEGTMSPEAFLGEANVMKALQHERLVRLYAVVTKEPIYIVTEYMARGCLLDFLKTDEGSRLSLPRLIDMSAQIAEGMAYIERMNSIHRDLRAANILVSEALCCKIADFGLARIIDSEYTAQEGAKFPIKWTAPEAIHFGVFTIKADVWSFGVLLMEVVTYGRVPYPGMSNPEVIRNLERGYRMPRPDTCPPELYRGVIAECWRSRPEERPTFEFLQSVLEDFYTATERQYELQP

`C=CC(=O)N1CCC(CNc2ncnc(N)c2-c2ccc(Oc3ccccc3)cc2)CC1` [Evobrutinib]: the IC50 (usually the concentration that gives 50% inhibition) on CDK8/cycC came out at 3500 nM; at Fgr [1] it was 2330 nM; at LCK it was 3800 nM; on BRK, 6020 nM; on CSK, 7820 nM; against RET, 8630 nM. Also, the IC50 at FLT3 is 2250 nM; against MLK2 it was 3980 nM; against CK1e1, 1450 nM; against MKNK2 it was 4130 nM; against FGFR1, 4150 nM; on RIPK2, 4330 nM.
Consider `C[C@H]1CN(C2COC2)CCN1c1ccc(Nc2cc(-c3ccnc(N4CCn5c(cc6c5CC(C)(C)C6)C4=O)c3CO)cn(C)c2=O)nc1` [Fenebrutinib], for which the half-inhibitory concentration (IC50) on Src [2] is 302 nM; on Fgr [3], 387 nM.
With `C=CC(=O)N1CCC[C@@H](n2c(=O)n(-c3ccc(Oc4ccccc4)cc3)c3c(N)nccc32)C1` [Tolebrutinib], the half-inhibitory concentration (IC50) at Src [4] came out at 54 nM; against BMX [5], 2.5 nM; against Fgr [1], 33 nM; against BLK, 3 nM; on TXK, 3.9 nM; at BRK it was 44 nM. Besides, the IC50 amounted to 87 nM against CSK; 16 nM at YES; 91 nM against HCK; 116 nM at SRM; 194 nM against LYN; 231 nM against FRK. Moreover, the 50% inhibitory concentration (IC50) against TNK2 stood at 847 nM; against RIPK2, 125 nM; against ERBB2 it was 25 nM. Further, the Ki on BMX [6] came to 42 nM.
